Paper PMC11397358, “Cytotoxic Activity of Novel GnRH Analogs Conjugated with Mitoxantrone in Ovarian Cancer Cells” (Molecules, 2024)
Read-outs that look alike come from different tables or passages of the source.

Experiments:
SKOV-3 cells = assay: Cell proliferation (MTT) assay; type: cell-based, human; settings: for IC50: Homo sapiens, 0.1 nM–10 µM, medium with 2% BCS, mean ± spread, Con-3 and mitoxantrone n = 3 experiments, Con-7 n = five
Protocol: The antiproliferative effects of GnRH-mitoxantrone conjugates, Con-3, and Con-7, were evaluated using the SKOV-3 cells. The Con-3 and Con-7 conjugates decreased the proliferation rate of SKOV-3 cells in a dose-dependent manner on days 2, 3, and 4 (Figure 3A–C).
Figure 3 Antiproliferative activity of the GnRH analogs. Decrease in the proliferation rate of the SKOV3 cells after their treatment with increasing concentrations of Con-3, Con-7, Con-P1 or Con-P2 for 2 days (A), 3 days (B) and 4 days (C) at 37 °C. At the end of the incubation, the cells were further incubated with 0.5 mg/mL MTT for 4 h at room temperature and the formed purple formazan crystals were quantified by measuring absorbance at 594 nm. The means ± S.E (triplicate determination) are shown from a representative experiment performed 3 times with similar results. The proliferation rates of cells treated with 1 μΜ of GnRH analogs were used to plot the graph D which depicts the decrease in cell growth over the incubation time (D). Statistical analysis was performed using one-way ANOVA.
At the end of the incubation, the cells were further incubated with 0.5 mg/mL MTT for 4 h at room temperature and the formed purple formazan crystals were quantified by measuring absorbance at 594 nm. The means ± S.E (triplicate determination) are shown from a representative experiment performed 3 times with similar results. […] Statistical analysis was performed using one-way ANOVA.
SKOV-3 cells (kindly provided by Prof. Dimitrios Mavroudis, University of Crete) were seeded into 96-well plates at a density of 6000 cells/well, in triplicates, and incubated overnight in Dulbecco’s modified Eagle’s medium/F12 (DMEM/F12) (1:1), containing 3.15 g/L glucose and 10% bovine calf serum (BCS, HyClone), at 37 °C and 5% CO2. At the end of the incubation, the culture medium was replaced with a fresh one containing 3.15 g/L glucose and 2% BCS, with or without increasing concentrations of GnRH analogs or mitoxantrone (0.1 nM–10 µM), and the cells were further incubated at 37 °C and 5% CO2 for 2, 3 and 4 days. Subsequently, (3-(4,5-dimethylthiazol-2-yl)-2,5- diphenyl tetrazolium bromide) (MTT) was added at a final concentration of 0.5 mg/mL, and the mixtures were incubated for 4 h at room temperature in the dark, allowing the viable cells to reduce the MTT to formazan crystals. The supernatants were removed, and the purple formazan crystals were dissolved in isopropanol containing 4% HCl (100 μL/well) by mixing thoroughly for 30 min in the dark, before the quantification of the absorbance at 594 nm using a Dynatech MicroElisa reader (Chantilly, VA, USA). The percentage of the proliferation rate (% proliferation rate) treated with a GnRH analog was determined based on the following equation: % proliferation rate = (absorbance of cells treated with a GnRH analog/absorbance of untreated cells) × 100. The % viability of the untreated cells (control) was defined as 100%. The % viabilities were analyzed by nonlinear regression analysis, using Prism 8.0 (GraphPad Software, Prism 8.0, San Diego, CA, USA).

human GnRH-R = molecular target: T1, human GnRH-R (Homo sapiens, UniProt P30968); assay: Calcium-based (fura-2) kinetic assay of GnRH-R agonism; type: cell-based; settings: HEK293 cells transfected with human GnRH-R; fura-2
T1 construct: host or cells: HEK293 (ATCC CRL-1573)
T1 sequence (P30968 1-328): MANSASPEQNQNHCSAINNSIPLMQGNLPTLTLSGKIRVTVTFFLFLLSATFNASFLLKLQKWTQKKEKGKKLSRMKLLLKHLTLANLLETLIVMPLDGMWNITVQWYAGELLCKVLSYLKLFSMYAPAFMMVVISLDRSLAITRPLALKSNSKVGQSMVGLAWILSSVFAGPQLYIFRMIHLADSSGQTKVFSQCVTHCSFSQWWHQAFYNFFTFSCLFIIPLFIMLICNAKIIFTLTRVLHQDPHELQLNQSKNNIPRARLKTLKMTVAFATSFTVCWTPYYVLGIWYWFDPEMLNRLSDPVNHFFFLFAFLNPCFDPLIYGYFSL
Protocol: For this purpose, fura-2-based kinetic assays to monitor the [Ca^2+] were performed in real-time using suspensions of HEK293 cells transiently transfected with the human GnRH-R (Figure 2A–I).
HEK293 cells transfected with the human GnRH-R served as a platform with which to test for agonist actions of individual test compounds. These cells were loaded with the ratiometric Ca^2+ indicator fura-2 so that the change in intracellular [Ca^2+] in response to agonist stimulation could be monitored in real time in a 96-well format. For these assays, the individual test compounds were administered at the 100 s time point.
Two days post-transfection, the HEK293 cells were harvested via trypsinization to obtain single-cell suspensions that were plated at 80% density on rat tail collagen-coated 96-well Costar 3904 plates for loading with the ratiometric Ca^2+ indicator fura-2. Measurements of the intracellular [Ca^2+] were performed using a Flexstation 3 microplate reader (Molecular Devices, Sunnyvale, CA, USA). Briefly, test solutions containing GnRH-R agonists were administered to individual wells of a 96-well plate using the automated pipetting feature of the Flexstation under computer control. […] Emitted light was detected at 505/15 nm, and the ratio of emission light intensity due to excitation at 335/9 and 375/9 nm was calculated. […]

SMILES	percentage of the proliferation rate (SKOV-3 cells; 1 μΜ, two days of treatment, untreated cells = 100%) [%]	GnRH-R agonist action (Ca2+ elevation), in words (human GnRH-R)	IC50 (SKOV-3 cells; SK-OV-3, 48 h, 2 days at 37 °C, read-out: IC50, proliferation of SKOV-3 cells, day 2) [nM]	IC50 (SKOV-3 cells; SK-OV-3, 72 h, 3 days at 37 °C, read-out: IC50, proliferation of SKOV-3 cells, day 3) [nM]	IC50 (SKOV-3 cells; SK-OV-3, 96 h, 4 days at 37 °C, read-out: IC50, proliferation of SKOV-3 cells, day 4) [nM]
CCNC(=O)[C@@H]1CCCN1C(=O)[C@H](CCCNC(=N)N)NC(=O)[C@H](CC(C)C)NC(=O)[C@@H](CSSCCC(=O)OCCNCCNc1ccc(NCCNCCO)c2c1C(=O)c1c(O)ccc(O)c1C2=O)NC(=O)[C@H](Cc1ccc(O)cc1)NC(=O)[C@H](CO)NC(=O)[C@H](Cc1c[nH]c2ccccc12)NC(=O)[C@H](Cc1c[nH]cn1)NC(=O)[C@@H]1CCC(=O)N1 [Con-3]	64.4	–	–	–	–
O=C1c2c(O)ccc(O)c2C(=O)c2c(NCCNCCO)ccc(NCCNCCO)c21 [mitoxantrone]	–	without effect	480 ± 210	420 ± 90	280 ± 60
